In US20100285038A1, “Factor Involved in Metastasis and Uses Thereof” (priority 2002, published 2010):
d = 2'-deoxy (DNA); m = 2'-O-methyl

How the values were obtained:
[1] = system: PI 3-kinase (p110α and p85); assay: Western blot analysis of PI 3-kinase (p110α and p85) expression in PC-3 cells; format: cell-based, human; details: lysates of PC-3 cells treated with PRF1 specific GeneBloc (FIG. 8A)
[2] = system: PRF1 (NM—019058) specific mRNA; assay: PRF1 mRNA knock-down by real time RT-PCR (Taqman) in transfected PC-3 cells; format: cell-based, human; details: PC-3 cells seeded on matrigel; standardized to internal p110α mRNA levels; DCt method
Description: Transfections were carried out in 96 well or 10-cm plates (at 30% to 50% confluency) by using various cationic lipids such as Oligofectamine, Lipofectamine (Life Technologies), NC388 (Ribozyme Pharmaceuticals, Inc., Boulder, Colo.), or FuGene 6 (Roche) according to the manufacturer's instructions. GeneBlocs were transfected by adding pre-formed 5× concentrated complex of GeneBloc and lipid in serum-free medium to cells in complete medium. The total transfection volume was 100 μl for cells plated in 96 wells and 10 ml for cells in 10 cm plates. The final lipid concentration was 0.8 to 1.2 μg/ml depending on cell density; the GeneBloc concentration is indicated in each experiment.
The RNA of cells transfected in 96-wells was isolated and purified using the Invisorb RNA HTS 96 kit (InVitek GmbH, Berlin). Inhibition of PRF1 mRNA expression was detected by real time RT-PCR (Taqman) analysis using 300 nM PRF1 5′ primer, 300 nM PRF1 3′ primer and 100 nM of the PRF1 Taqman probe Fam-Tamra labelled. […]
PC3 cells were transfected and seeded on matrigel as described and growth was monitored. mRNA was isolated from an aliquot of the cells seeded on matrigel and analysed using Taqman assay (left panel). […]

PC-3 cells [3] = assay: In vitro growth on Matrigel matrix; format: cell-based, human; details: PC-3 cells transfected with GeneBloc; versus corresponding mismatched oligonucleotides
Description: PC3 cells were treated with 10 μM LY294002 or DMSO when seeded on Matrigel. If cells were transfected previous to seeding cells were transfected with GeneBloc and trypsinized 48 h post transfection. The cells were washed in medium and seeded into duplicate 24-wells (100.000 cells per well) pre-coated with 250 μl matrigel basement membrane matrix (Becton Dickinson). After incubation for 24 to 72 h photographs were taken at 5× magnification with an Axiocam camera attached to an Axiovert 5100 microscope (Zeiss).
A more confluent growth of the cells is taken as an indication that their metastasis and migration behavior is increased which allows the cells to spread over the three-dimensional structure provided by the matrigel. The result of this example is depicted in FIG. 5.
PC3 cells were transfected and seeded on matrigel as described and growth was monitored. mRNA was isolated from an aliquot of the cells seeded on matrigel and analysed using Taqman assay (left panel). PRF1 (NM_019058) specific mRNA was standardized to internal p110α mRNA levels. A PTEN specific GeneBloc is used as a negative control in the PTEN^−/− PC-3 cells and a p110β specific GeneBloc is used as a positive control for growth in extracellular matrix. […]

PRF1 protein = assay: Western blot analysis of PRF1 protein expression in PC-3 cells; format: cell-based, human
Description: A polyclonal antibody was generated against PRF1 using standard techniques. The polyclonal antibody thus obtained was tested for its specificity for PRF1. For that purpose, cell lysates from PC-3 cells treated with PRF1 specific antisense molecules, more particularly gene blocks, or mismatches thereof and cells transfected with expression plasmides for recombinant HA-tagged PRF1 were prepared. The lysates were analysed by Western blot analysis using the polyclonal antibody and the results are depicted in FIG. 8 A.
(§1) To investigate whether PI 3-kinase activity has an impact on PRF1 protein expression, PC-3 cells were treated either with LY294002 or with DMSO as control. Analysis was performed by Western Blot analysis using the polyclonal antibody as detection means for PRF1 protein. Apart from PRF1 protein, also expression of Akt and phosphorylated Akt (P*Akt) was monitored using respective specific antibodies. Additionally, the expression of p110α and p85 was monitored.
To investigate whether the expression of PRF1 at the protein level would also be dependent on Akt (PKB) activity and HIF1α activity PC-3 cells were treated with Akt specific antisense molecules. More particularly, two antisense molecules, designated Akt1-GB and Akt2-molecule were used with the readout being the same as discussed in connection with FIG. 9, whereby, additionally, the HIF1α protein expression was monitored using a commercially available protein G-purified polyclonal antibody (R&DSystems, Lot Number: IUGO13071).
The same experiment using the same markers for monitoring except Akt and P*-Akt was carried out with cells grown under hypoxic conditions which was realized by treating the cells with CoCl2. Two different forms of antisense molecules, namely HIF1α-GB66 and HIF1α-GB67 were used and respective mismatches used as controls.
A lane of the Blot represents the cell lysate of the cells shown in the corresponding photograph. As a read-out, p110 alpha and p85 are shown as loading control and the component of the PI-3K pathway investigated, i.e. AKT, monitored as P*AKT, HIF1 alpha and PRF1.

[4] = system: Akt and phosphorylated Akt (P*Akt); assay: Western blot analysis of Akt and phosphorylated Akt in PC-3 cells; format: cell-based, human; details: DMSO as control (FIG. 9A)
Description: as §1

PC-3 cells [5] = assay: Prostatic tumor growth and lymph node metastasis of PC-3 cells stably transfected with siRNA expression plasmids; format: in vivo, Shoe:NMRI-nu/nu mice; details: 56 days post inoculation, stably transfected PC-3 cells
Description: Male Shoe:NMRI-nu/nu mice (Tierzucht Schönwalde GmbH) maintained under SPF conditions (Laminar air flow equipment, Scantainer, Scanbur) served as recipients for the human prostate carcinoma cells. The animals, aged 6-8 weeks and weighing 28-30 g, were inoculated 2×10^6/0.03 ml tumor cells into both, the left dorsolateral lobe of the prostatic gland (iprost; Orthotopic) or the tip of the Lobus lateralis sinister of the liver (ihep; Ectopic). For this purpose, the mice received a total body anaesthesia using a mixture of Ketanest (Parke-Davis GmbH) and Rompun (Bayer Vital GmbH) 80:1 with dosages of 100 mg/kg and 5 mg/kg, respectively. […]
All sacrificed animals were completely dissected and photographically documented. Tumors (Prostatic gland) and metastases (Caudal, lumbar, renal lymph node metastases) were measured in two dimensions by means of a pair of callipers. The volume was calculated according to V (mm^3)=ab^2/2 with b<a. […]
The various siRNA constructs such as the ones directed to p 110 alpha, p110 beta and PTEN as well as the PRF1 specific siRNA were cloned in the same vector construct. […] Resistent pools of cells were expanded and harvested, cell number determined and prepared for animal experiment as described. […]

For “GeneBloc 70043: third generation antisense oligonucleotide directed to PRF1 mRNA, SEQ ID NO. 7 (antisense CCCAAAAGTTCAGTCGUCUCU; sugars from the 5' end m6 d9 m6, backbone and methylation of C not given here; DNA gap phosphorothioate-linked, flank linkages not clearly stated, further chemistry not fully specified)”, which “PI 3-kinase expression (p110α and p85 specific antibodies)” value [1] is on record?
Its value is “still being extensively expressed”.

What about the “knockdown of the mRNA of PRF1” value [2] of the same molecule?
Its value is “significant knockdown”.

What about the growth on matrigel (PC-3 cells [3]) of the same molecule?
The growth on matrigel was “Specific growth inhibition”.

And the “expressed PRF1 protein” value (PRF1 protein; lysates of PC-3 cells treated with PRF1 specific GeneBlocs or mismatches, polyclonal antibody (FIG. 8A))?
The value was “clear reduction”.

For `O=c1cc(N2CCOCC2)oc2c(-c3ccccc3)cccc12` [LY294002, 2-(4-morpholinyl)-8-phenylchromone], which “Akt and phosphorylated Akt” value [4] is on record?
The value was “down regulated”.

What about the PRF1 protein expression (PRF1 protein; PC-3 cells, after 72 and 96 h, DMSO as control (FIG. 9A)) of the same molecule?
The PRF1 protein expression was “down regulated”.

B1: PRF1 specific siRNA: siRNA generated by U6+2 promoter driven expression from plasmid, directed to the mRNA of PRF1; expression cassette SEQ ID NO. 17 (nucleic acid)
DNA: GAATTCCTATTTCCCATGATTCCTTCATATTTGCATATTTTTAAAATGGACTATCATATGCTTACCGTAACTTGAAAGTATTTCGATTTCTTGGCTTTATATATCTTGGGAAAGGACGAAACACCGGGAGACTAGAGGCAGGAGCAAAAAAAAAAACTCCTGCCTCTAGTCTCCACTTTTTCTCGAG
notes: siRNA generated by U6+2 promoter driven expression from plasmid, directed to the mRNA of PRF1; 17
For B1, which “prostatic tumor growth (volume of primary prostate tumors)” value (PC-3 cells [5]; EGFP expression plasmid as control (FIG. 6C)) is on record?
The value was “significantly inhibited”.

What about the “total lymph node metastasis (volume)” value (PC-3 cells [5]; EGFP expression plasmid as control (FIG. 6D)) of the same molecule?
The value was “less prominent”.
